As a reminder, the pEC50 is the negative decadic logarithm of the EC50, by convention in mol/L. A high value points to a low EC50.

Read-outs that look alike come from different tables or passages of the source. No end group written: not given here.

One experiment deals with mouse bronchial rings. The following applies: for relaxation in presence of NO blockers: L—NOARG (100 μM) and HbO (20 μM); for response of epithelium-intact bronchi: contracted to approximately 40% Fmax with carbachol; for relaxation after removal of the epithelium: epithelium removed with 0.1% v/v Triton X-100; for response in presence of cyclooxygenase inhibitors: indomethacin (3 μM) or aspirin (100 μM); for maximum relaxation (Rmax) / sensitivity (pEC50): main bronchi with epithelium; for maximum relaxation (Rmax): % of initial force to carbachol; for sensitivity (pEC50): contracted with carbachol; for response after desensitisation to thrombin: post-thrombin; for response after desensitisation to trypsin: post-trypsin. An excerpt:
(§1) The right and left main bronchi and their first order branches of specific pathogenfree (SPF) Balb/c mice (15–20 g; either sex), Hartley tricolour guinea-pigs (300–400 g; male) and Sprague-Dawley rats (200–350 g; either sex), all killed by either cervical dislocation or overdosed (i.p.) with sodium pentobarbitone, were cleared of surrounding connective tissue, nerves and blood vessels under a dissecting microscope and placed in cold, carbogenated (95% v/v O2,5% v/v CO2) Krebs solution (Kemp and Cocks, 1997). Human airway preparations (0.5–1 mm in external diameter) were dissected from lungs of cancer patients undergoing thoracotomy at The Royal Melbourne Hospital, Melbourne, Australia. The epithelium was removed from some bronchi either by mechanical abrasion of the luminal surface (guinea-pig) or by brief, gentle intraliminal flushing of the airways with Krebs containing 0.1% v/v Triton-X100 (mouse and rat). In each case, removal of the epithelium was verified histologically in 8 μm formalin-fixed, paraffin sections stained with haemotoxylin and eosin. Ring segments (approximately 2 mm long) of bronchi and bronchioles were mounted in Krebs (37° C.) on stainless steel wires (40 μm) in dual channel (5 ml) Mulvany-Halpern myographs (JP Trading, Aarhus, Denmark) to record changes in isometric force (Kemp and Cocks, 1997). After equilibration at a passive force between 0.2 g and 0.3 g, tissues were contracted to their maximum levels of active force (Fm.),) with acetylcholine (30 μM), thoroughly washed with Krebs and allowed to return to baseline. Various drugs or their vehicles were then added and 30 min later all tissues were contracted to approximately 40% Fmax with titrated concentrations of carbachol (10–500 nM). The L-type voltage-operated Ca^2+ channel inhibitor, nifedipine (0.3 μM) was added to all mouse and rat tissues after obtaining Fmax to control characteristic phasic contractile activity with carbachol.
If no response occurred the tissues were then exposed to cumulative concentrations of either SLIGRL—NH2 (SEQ ID NO:2) or SFLLRN—NH2 (SEQ ID NO:1) (0.1–30 μM).
(§2) Results are presented as mean±s.e mean and pEC50 (sensitivity) values were calculated by fitting concentration-response curves to a four parameter logistic function (Kemp and Cocks, 1997) using Graphpad Prism (version 2.0). Statistical comparison of mean pEC50 and maximum response (Rmax) values were compared by two-tailed unpaired Student's t-tests or one way analysis of variance (ANOVA) with Tukey-Kramer's t-tests for multiple comparisons. P<0.05 was accepted as significant. Unless specified, all averaged data are from n>5 experiments.
Mouse bronchus preparations were carefully mounted horizontally on fine (40 μm) stainless steel wires attached to the jaws of a Mulvany-Halpem myograph. After 60 min at 37° C., all rings were stretched to 0.5 g passive force, which had been determined in preliminary experiments to be optimal, and allowed to recover from that stretch for a further 30 min. Maximum contraction (Fmax) in each tissue was then determined with exogenously applied acetylcholine (ACh; 30 μM) followed by washout. A further 30 min equilibration time was allowed before the tissues were actively contracted to between 20% and 60% of their individual Fm.” values with titrated concentrations of carbachol (10–100 nM). […] In some cases, tissues were treated with a range of drugs prior to contraction to approximately […] Fmax. These included the cyclooxygenase inhibitors indomethacin and aspirin, the nitric oxide (NO) synthase inhibitor N′-nitro-L-(L-NOARG), the NO scavenger oxyhaemoglobin (Hb0), and the L-voltage-operated Cat' channel inhibitor nifedipine.
After an initial passive stretch to 0.5 g (Ti) and recovery, each ring was contracted with acetylcholine (Ach; 30 μM). The contraction was taken as the tissue maximum and referred to as Fmax.

Experiment [1] relates to first generation branches of the mouse main bronchi. As to conditions: mouse bronchioles.
From the text: as §1
as §2, with “All cumulative responses (relaxations and contractions) were normalised as percentages of the initial level of active force to carbachol. Results” for “Results”

For a further experiment, the system named is rat isolated bronchi.
From the text: as §1
as §2, with “All cumulative responses (relaxations and contractions) were normalised as percentages of the initial level of active force to carbachol. Results” for “Results”

Experiment [2] concerns guinea-pig isolated bronchi.
From the text: as §1
Mouse bronchus preparations were carefully mounted horizontally on fine (40 μm) stainless steel wires attached to the jaws of a Mulvany-Halpem myograph. After 60 min at 37° C., all rings were stretched to 0.5 g passive force, which had been determined in preliminary experiments to be optimal, and allowed to recover from that stretch for a further 30 min. Maximum contraction (Fmax) in each tissue was then determined with exogenously applied acetylcholine (ACh; 30 μM) followed by washout. A further 30 min equilibration time was allowed before the tissues were actively contracted to between 20% and 60% of their individual Fm.” values with titrated concentrations of carbachol (10–100 nM).

The subject of experiment [3] is isolated human bronchioles. The method, then: Small (500 μm) bronchioles were carefully dissected from discarded sections of human left lung which had been excised at surgery from two male lung cancer patients (Royal Melbourne Hospital, Melbourne, Australia).
Dissection of these bronchioles required a fine-dissecting microscope and an assistant to continually flood the preparation with cold oxygenated Krebs solution to remove air bubbles and keep the tissue viable. Bronchioles approximately 2 mm in length were then mounted on […] diameter stainless wires in a Krebs solution-filled myograph chamber, as described for the mouse bronchus preparation above.

The subject of the next experiment is guinea-pig taenia coli. Here is the method: 2 cm strips of teania coil with intact Auerbach's plexus, but which had been stripped of the mucosa, were suspended in Kreb's solution under 1 g passive tension, and contracted with histamine (1 μM) to induce active tension.
In the next experiment the test system is rat gastric fundus. The following applies: mucosa intact, contracted with acetylcholine. An excerpt: Longitudinal strips of gastric fundus from male Sprague-Dawley rats were suspended under 1 g passive isometric tension in Krebs solution.
Experiment [4] concerns human coronary artery rings.
[5] abbreviates: desensitized to both thrombin and trypsin.

SFLLRN [SFLLRN—NH2]: in the experiment with mouse bronchial rings, the “relaxation in presence of NO blockers” value is recorded as “unaffected”, the “response of epithelium-intact bronchi” value was “powerful concentration dependent relaxations”, the “relaxation after removal of the epithelium” value is “abolished” and the “response in presence of cyclooxygenase inhibitors” value is reported as “converted to concentration-dependent contractions”. For the same substance, in the experiment on mouse bronchial rings, the “maximum relaxation (Rmax)” value came to 76±11%, the “sensitivity (pEC50)” value was 5.6±0.1 −log M, the “response after desensitisation to thrombin” value was “abolished” and the “response after desensitisation to trypsin” value (“response … to trypsin” for short) was “abolished”. In addition, in experiment [1], the “maximum relaxation (Rmax)” value is listed as 58±10% and the “sensitivity (pEC50)” value is given as 5.5±0.02. In the experiment with rat isolated bronchi, the “response of rat bronchial rings” value is on record as “only caused a contraction”. In experiment [2], the “response of epithelium-intact rings” value was “only caused concentration-dependent contractions”. Besides, the “response of human bronchioles” value in experiment [3] is given as “relaxed the bronchioles”. In addition, the “maximum relaxation relative to isoprenaline plus IBMX” value in experiment [3] (contracted to approximately 30% Fmax with carbachol) is “approximately 30%”. Also, in the experiment on guinea-pig taenia coli (apamin (100 μM)), the “relaxation in presence of apamin” value is recorded as “inhibited”. Moreover, the “relaxation of taenia coli” value with guinea-pig taenia coli (contracted with histamine (1 μM)) was “relaxed in response to TRAP in a concentration-dependent manner”. In addition, the “response of rat gastric fundus” value in the experiment with rat gastric fundus was “relaxation”. Besides, in experiment [4] (setting [5]), the Rmax after desensitisation amounted to 92.0±5.0% and the pEC50 after desensitisation was determined as 6.4±0.2. In addition, in experiment [4] (endothelium-denuded), the “relaxation after removal of the endothelium” value is “abolished”. In addition, in experiment [4] (endothelium-intact, control), the “maximum (Rmax % contraction reversal)” value amounted to 95.2±1.3% and the pEC50 is 6.9±0.1 −log M. Besides, in experiment [4] (untreated, n=8), the “pEC50, untreated control of desensitisation experiment” value was determined as 7.0±0.1.

Take SLIGRL-NH2 [SLIGRL—NH2]: in the experiment with mouse bronchial rings, the “relaxation in presence of NO blockers” value was “unaffected”, the “response of epithelium-intact bronchi” value is listed as “powerful concentration dependent relaxations”, the “relaxation after removal of the epithelium” value is reported as “abolished” and the “response in presence of cyclooxygenase inhibitors” value was “abolished”. Further, in the experiment with mouse bronchial rings, the “maximum relaxation (Rmax)” value worked out at 94±3%, the “sensitivity (pEC50)” value is listed as 5.6±0.1 −log M, the “response after desensitisation to thrombin” value is “unaffected” and the “response … to trypsin” value is listed as “abolished”. Also, the “response … to trypsin” value in the experiment with mouse bronchial rings (listed as PAR2-AP) is “virtually abolished”. Moreover, in experiment [1], the “maximum relaxation (Rmax)” value was determined as 58±4% and the “sensitivity (pEC50)” value came out at 5.1±0.05. In the experiment on rat isolated bronchi (rat bronchi), the Rmax was 56±5% and the negative logarithm of the EC50 (pEC50) is 5.5±0.1. Further, the “response of epithelium-intact rings” value in experiment [2] is listed as “Concentration dependent relaxations to PAR2-AP were observed in six out of thirteen bronchial rings”. The “response of epithelium-denuded rings” value in experiment [2] (epithelium-denuded) is “either caused a small contraction or no response”. Moreover, in experiment [2] (guinea-pig bronchi), the Rmax is 31±5% and the pEC50 turned out to be 5.4±0.2. Also, the “response of human bronchioles” value in experiment [3] is given as “appeared to cause some contraction, but this was most likely baseline drift”. In addition, the “response of rat gastric fundus” value with rat gastric fundus is reported as “relaxation”. For the same substance, the “relaxation” value in experiment [4] (endothelium-intact) is recorded as “no relaxation”.

For the origin of these results see patent US7256172B1, “Method of treatment and agents useful for same” (The University of Melbourne, priority 1998, dated 2007).
